Test results taken from PubChem BioAssay (NCI).
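96-well plates; 48 h exposure; 5 concentrations. Endpoints by linear interpolation between flanking doses. Not reached: highest tested concentration assigned. TGI denotes the concentration required for complete inhibition of growth.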

Assays:
Assay in all cases: DTP human tumour cell line panel, 48 h
EKVX NSCLC = test system: EKVX NSCLC
HL-60(TB) leukemia = test system: HL-60(TB) leukemia
IGROV1 ovarian = test system: IGROV1 ovarian
K-562 leukemia = test system: K-562 leukemia
M14 melanoma = test system: M14 melanoma
NCI-H226 lung = test system: NCI-H226 lung
OVCAR-5 ovarian = test system: OVCAR-5 ovarian
OVCAR-8 ovarian = test system: OVCAR-8 ovarian
RPMI-8226 leukemia = test system: RPMI-8226 leukemia
SF-539 CNS = test system: SF-539 CNS
SK-MEL-5 melanoma = test system: SK-MEL-5 melanoma
SN12C renal = test system: SN12C renal
SNB-19 CNS = test system: SNB-19 CNS
SNB-78 CNS = test system: SNB-78 CNS
UACC-62 melanoma = test system: UACC-62 melanoma
HOP-92 NSCLC = test system: HOP-92 NSCLC
HT29 colon = test system: HT29 colon
A498 renal = test system: A498 renal
MCF7 breast = test system: MCF7 breast
MDA-MB-435 = test system: MDA-MB-435

Structure (SMILES): BrC1=CCC23CC=C(Br)[C@H]4CC2(COC3)C[C@@H]1O4 (some centres not stated)
- TGI (EKVX NSCLC): > 100 µM
- TGI (HL-60(TB) leukemia): 38.1 µM
- TGI (IGROV1 ovarian): > 100 µM
- TGI (K-562 leukemia): 89 µM
- TGI (M14 melanoma): > 100 µM
- TGI (NCI-H226 lung): > 100 µM
- TGI (OVCAR-5 ovarian): 86.2 µM
- TGI (OVCAR-8 ovarian): > 100 µM
- TGI (RPMI-8226 leukemia): > 100 µM
- TGI (SF-539 CNS): > 100 µM
- TGI (SK-MEL-5 melanoma): > 100 µM
- TGI (SN12C renal): > 100 µM
- TGI (SNB-19 CNS): > 100 µM
- TGI (SNB-78 CNS): 93.6 µM
- TGI (UACC-62 melanoma): > 100 µM

Structure (SMILES): Cc1ccc(NCC(=O)N2CC(=O)Nc3ccccc32)c(C)c1
- TGI (EKVX NSCLC): > 100 µM
- TGI (HL-60(TB) leukemia): > 100 µM
- TGI (HOP-92 NSCLC): > 100 µM
- TGI (HT29 colon): > 100 µM
- TGI (K-562 leukemia): > 100 µM
- TGI (M14 melanoma): > 100 µM
- TGI (NCI-H226 lung): > 100 µM
- TGI (OVCAR-5 ovarian): > 100 µM
- TGI (OVCAR-8 ovarian): > 100 µM
- TGI (RPMI-8226 leukemia): > 100 µM
- TGI (SF-539 CNS): > 100 µM
- TGI (SK-MEL-5 melanoma): > 100 µM
- TGI (SN12C renal): > 100 µM
- TGI (SNB-19 CNS): > 100 µM
- TGI (SNB-78 CNS): > 100 µM
- TGI (UACC-62 melanoma): > 100 µM

Structure (SMILES): O=C1NCC(CSc2nc3cc(C4CCCc5c4[nH]c4ccccc54)ccc3o2)N1 (configuration not stated)
- TGI (A498 renal): 50.6 µM
- TGI (EKVX NSCLC): > 100 µM
- TGI (HL-60(TB) leukemia): > 100 µM
- TGI (HOP-92 NSCLC): 71.2 µM
- TGI (HT29 colon): > 100 µM
- TGI (IGROV1 ovarian): > 100 µM
- TGI (K-562 leukemia): > 100 µM
- TGI (M14 melanoma): > 100 µM
- TGI (MCF7 breast): > 100 µM
- TGI (MDA-MB-435): > 100 µM
- TGI (NCI-H226 lung): > 100 µM
- TGI (OVCAR-5 ovarian): > 100 µM
- TGI (OVCAR-8 ovarian): 88.1 µM
- TGI (RPMI-8226 leukemia): > 100 µM
- TGI (SF-539 CNS): > 100 µM
- TGI (SK-MEL-5 melanoma): > 100 µM
- TGI (SN12C renal): > 100 µM
- TGI (SNB-19 CNS): > 100 µM
- TGI (UACC-62 melanoma): > 100 µM

Structure (SMILES): [N-]=[N+]=NC(CCl)c1cn([C@H]2C[C@H](O)[C@@H](CO)O2)c(=O)[nH]c1=O (some centres not stated)
- TGI (EKVX NSCLC): > 100 µM
- TGI (HL-60(TB) leukemia): > 100 µM
- TGI (HOP-92 NSCLC): > 100 µM
- TGI (HT29 colon): > 100 µM
- TGI (IGROV1 ovarian): > 100 µM
- TGI (K-562 leukemia): > 100 µM
- TGI (M14 melanoma): > 100 µM
- TGI (NCI-H226 lung): > 100 µM
- TGI (OVCAR-5 ovarian): > 100 µM
- TGI (OVCAR-8 ovarian): > 100 µM
- TGI (RPMI-8226 leukemia): > 100 µM
- TGI (SF-539 CNS): > 100 µM
- TGI (SK-MEL-5 melanoma): > 100 µM
- TGI (SN12C renal): > 100 µM
- TGI (SNB-19 CNS): > 100 µM
- TGI (SNB-78 CNS): > 100 µM
- TGI (UACC-62 melanoma): > 100 µM
